Measurements: patent publication US9474759B2 (priority 2011, dated 2016)

Key:
[1] = system: FCV; test: Cell-based screening, FCV in CRFK cells (Example 2); settings: Feline calicivirus; CRFK cells; read-out: Inhibition [ED50 (μM)] against various viruses: Calicivirus, FCV
Method: 3. Cell-based screening of inhibitor. The effects of each inhibitor on the viral replication were examined. The list of viruses and corresponding cell lines are listed above in Table 2. Briefly, confluent cells were inoculated with virus at a MOI of 5 or 0.05 for 1 hr, and medium was replaced with medium containing mock-medium or each compound (up to 100 μM). The virus infected cells were further incubated for up to 96 hrs, and the replication of virus was measured by TCID50 assay with the 10-fold dilution of each sample used for virus titration (Reed and Muench, 1938). In some viruses, the virus protein and genome expression levels were detected by Western blot analysis and real-time qRT-PCR, respectively, as described below. The IC50s of the compounds were calculated.

[2] = target: TGEV 3CL protease (Porcine transmissible gastroenteritis coronavirus, UniProt P0C6Y5); test: FRET-based protease assay, TGEV 3CL protease (Example 5); assay type: biochemical, TGEV Miller strain
Sequence of TGEV 3CL protease (P0C6Y5 2879-3180): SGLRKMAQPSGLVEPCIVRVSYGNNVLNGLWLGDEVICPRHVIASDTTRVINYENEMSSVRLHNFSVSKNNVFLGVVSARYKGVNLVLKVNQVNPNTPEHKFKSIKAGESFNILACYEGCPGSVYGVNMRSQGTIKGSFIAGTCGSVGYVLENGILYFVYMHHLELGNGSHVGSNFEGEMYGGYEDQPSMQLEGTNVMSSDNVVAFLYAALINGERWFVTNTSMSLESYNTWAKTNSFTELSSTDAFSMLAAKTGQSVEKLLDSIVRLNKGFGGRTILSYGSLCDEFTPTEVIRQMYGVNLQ
Description: The 3CL proteases are highly conserved among all coronaviruses, and feline coronavirus 3CL protease is closely related TGEV 3CL protease. Therefore we cloned and expressed the TGEV 3CL protease for the FRET assay. The cDNA encoding the full length of 3CL protease of TGEV Miller strain was amplified with RT-PCR as previously described. The primers contained the nucleotide sequence of the 3CL protease for cloning as well as the nucleotides for 6 Histidine in the forward primer. The amplified product was subcloned to pET-28a(+) vector (GenScript, Piscataway, N.J.). The expression and purification of the 3CL protease was performed with a standard method described previously by our lab (Chang et al., 2012b; Takahashi et al., 2012; Tiew et al., 2011).
Our protease inhibitor compounds and commercial cathepsin inhibitors CA074-Me and E64d were prepared in DMSO as stock solutions (10 mM), and further diluted in assay buffer consisting of 20 mM HEPES, 0.4 mM EDTA, 30% glycerol, 120 mM NaCl, and 4 mM DTT at pH 6. […] TGEV 3CL protease at a final concentration of 0.1˜0.2 μM and the substrate (Dabcyl-[…]-Edans; SEQ ID NO:2) at 10 μM were used for the studies. The substrate was purchased from Bachem Americas, Inc (Torrance, Calif.). Compounds at various concentrations (0˜50 μM) were pre-incubated with TGEV 3CL protease in 25 μl for 30 min at 37° C., and the same volume of substrate was added to a 96-well black plate. The mixtures were then incubated at 37° C. for 60 min, and fluorescence readings were obtained on a microplate reader at 360 nm excitation and 480 nm emission wavelengths. The relative fluorescence units (RFU) were calculated by subtracting background (substrate control well without protease) from the fluorescence readings. The dose-dependent FRET inhibition curves were fitted with variable slope (four parameters) using GraphPad Prism software (La Jolla, Calif.) in order to determine the compound concentration that gives a half-maximum response (IC50).

SMILES: CC(C)C[C@H](NC(=O)OCc1ccccc1)C(=O)N[C@H](C=O)C[C@@H]1CCNC1=O [GC373]
- EC50 [1]: 65 µM
- IC50 ([2]; TGEV 3CL protease, read-out: IC50 against 3CL protease in the FRET assay): 0.98 µM
- inhibition of the activity of TGEV 3CL protease (in words) ([2]; compound at 50 μM final concentration): remarkably inhibited
